Measured values: the supplement of paper PMC10307832

How the values were obtained:
Experiment in all cases: relative viability (nuclei count vs DMSO), 5 days (fraction); higher = more cells survive
[1] = compound: C1=CC2=C(C=C(C(=C2N=C1)O)N=NC3=CC4=C(C=C3)C=C(C=C4)S(=O)(=O)O)S(=O)(=O)O + CC(=O)c1c(C)c2cnc(Nc3ccc(N4CCNCC4)cn3)nc2n(C2CCCC2)c1=O [Palbociclib] (partner 0.5 µM)
Outline: (§1)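 Lung cancer cell lines in 1536-well plates got either a single drug or a fixed anchor-drug dose together with five library-drug doses (not always all listed) in √10 steps, by pin tool, on the day after seeding. Nuclei were counted after 5 days, and relative viability is the treated-to-vehicle ratio of nuclei counts. Values are medians of duplicate plates.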

AT-7519 + Decitabine = compound: O=C(NC1CCNCC1)c1n[nH]cc1NC(=O)c1c(Cl)cccc1Cl [AT-7519] + Nc1ncn([C@H]2C[C@H](O)[C@@H](CO)O2)c(=O)n1 [Decitabine] (partner 2 µM)
Outline: as §1

[2] = compound: C1=CC2=C(C=C(C(=C2N=C1)O)N=NC3=CC4=C(C=C3)C=C(C=C4)S(=O)(=O)O)S(=O)(=O)O + Nc1nc2[nH]cc(CCc3ccc(C(=O)N[C@@H](CCC(=O)O)C(=O)O)cc3)c2c(=O)[nH]1 [Pemetrexed] (partner 0.2 µM)
Outline: as §1

AT-7519 + Alpelisib = compound: O=C(NC1CCNCC1)c1n[nH]cc1NC(=O)c1c(Cl)cccc1Cl [AT-7519] + Cc1nc(NC(=O)N2CCC[C@H]2C(N)=O)sc1-c1ccnc(C(C)(C)C(F)(F)F)c1 [Alpelisib] (partner 2 µM)
Outline: as §1

Cell Line | relative viability ([1]; first compound 0.08 µM) | relative viability ([1]; first compound 0.253 µM) | relative viability ([1]; first compound 0.8 µM) | relative viability ([1]; first compound 2.53 µM) | relative viability ([1]; first compound 8 µM) | relative viability (AT-7519 + Decitabine; first compound 0.01 µM) | relative viability (AT-7519 + Decitabine; first compound 0.03162 µM) | relative viability (AT-7519 + Decitabine; first compound 0.3162 µM) | relative viability (AT-7519 + Decitabine; first compound 1 µM) | relative viability ([2]; first compound 0.08 µM) | relative viability ([2]; first compound 0.253 µM) | relative viability ([2]; first compound 0.8 µM) | relative viability ([2]; first compound 2.53 µM) | relative viability ([2]; first compound 8 µM) | relative viability (AT-7519 + Alpelisib; first compound 0.01 µM) | relative viability (AT-7519 + Alpelisib; first compound 0.03162 µM) | relative viability (AT-7519 + Alpelisib; first compound 0.3162 µM) | relative viability (AT-7519 + Alpelisib; first compound 1 µM)
NCI-H1975 | 0.753 | 0.592 | 0.606 | 0.639 | 0.666 | 0.398 | 0.371 | 0.252 | 0.271 | 0.315 | 0.297 | 0.302 | 0.29 | 0.303 | 0.63 | 0.658 | 0.381 | 0.152
CAL-12T | 0.471 | 0.352 | 0.415 | 0.481 | 0.351 | – | – | – | – | 1.25 | 1.18 | 1.14 | 1.18 | 1.13 | 1.27 | 1.02 | 0.534 | 0.13
HCC-44 | 1.02 | 0.96 | 0.964 | 1.01 | 0.975 | 0.928 | 0.95 | 0.978 | 1.04 | 0.703 | 0.692 | 0.649 | 0.675 | 0.728 | 0.835 | 0.835 | 0.769 | 0.572
EKVX | 0.542 | 0.359 | 0.35 | 0.48 | 0.344 | 0.331 | 0.303 | 0.57 | 0.463 | 0.41 | 0.369 | 0.393 | 0.397 | 0.388 | 0.836 | 0.86 | 0.76 | 0.745
NCI-H1651 | 0.522 | 0.502 | 0.511 | 0.55 | 0.499 | 0.678 | 0.555 | 0.626 | 0.614 | 0.678 | 0.534 | 0.601 | 0.609 | 0.54 | 1.03 | 0.956 | 0.811 | 0.836
NCI-H1944 | 0.347 | 0.323 | 0.337 | 0.359 | 0.327 | 0.443 | 0.415 | 0.434 | 0.344 | 0.61 | 0.559 | 0.57 | 0.634 | 0.395 | 0.86 | 0.787 | 0.799 | 0.74
NCI-H1703 | – | – | – | – | – | – | – | – | – | – | – | – | – | – | 0.282 | 0.297 | 0.299 | 0.156
Calu-6 | – | – | – | – | – | – | – | – | – | – | – | – | – | – | 0.995 | 1.17 | 0.877 | 0.391
EBC-1 | – | – | – | – | – | – | – | – | – | – | – | – | – | – | 0.863 | 0.835 | 0.734 | 0.55
SW 1573 | 0.463 | 0.41 | 0.397 | 0.38 | 0.0522 | 0.471 | 0.424 | 0.34 | 0.137 | 0.881 | 0.817 | 0.78 | 0.838 | 0.257 | 0.802 | 0.739 | 0.743 | 0.394
A-427 | 0.525 | 0.547 | 0.512 | 0.541 | 0.482 | 0.539 | 0.508 | 0.604 | 0.53 | 0.996 | 1.02 | 0.929 | 1.07 | 0.996 | 1.11 | 1.06 | 1.01 | 0.453
NCI-H2347 | 0.459 | 0.447 | 0.44 | 0.482 | 0.426 | 0.561 | 0.59 | 0.571 | 0.526 | 0.44 | 0.474 | 0.444 | 0.403 | 0.343 | 1.2 | 0.952 | 1.08 | 0.771
NCI-H1355 | 0.401 | 0.372 | 0.368 | 0.395 | 0.429 | 0.347 | 0.347 | 0.359 | 0.331 | 1.13 | 1.05 | 1.02 | 1.1 | 0.872 | 0.813 | 0.805 | 0.884 | 0.547
NCI-H358 | 0.138 | 0.134 | 0.166 | 0.134 | 0.135 | 0.202 | 0.193 | 0.198 | 0.112 | 0.159 | 0.16 | 0.162 | 0.163 | 0.171 | 0.948 | 0.712 | 0.431 | 0.179
PC-3 [JPC-3] | 0.572 | 0.566 | 0.528 | 0.577 | 0.565 | 0.802 | 0.815 | 0.726 | 0.756 | 1.07 | 1.03 | 1.04 | 1.16 | 0.999 | 1.02 | 1.03 | 1.04 | 1.03
NCI-H2228 | 0.81 | 0.726 | 0.79 | 0.822 | 0.92 | – | – | – | – | 0.305 | 0.312 | 0.328 | 0.334 | 0.324 | 0.972 | 0.821 | 0.584 | 0.415
HOP-62 | 0.481 | 0.423 | 0.42 | 0.513 | 0.499 | 0.224 | 0.203 | 0.217 | 0.23 | 0.263 | 0.279 | 0.312 | 0.349 | 0.325 | 1.19 | 0.965 | 0.936 | 0.668
HARA | 0.249 | 0.244 | 0.277 | 0.221 | 0.245 | 0.526 | 0.531 | 0.819 | 0.441 | 0.212 | 0.214 | 0.252 | 0.206 | 0.237 | 0.836 | 0.72 | 0.816 | 0.541
NCI-H838 | 0.254 | 0.216 | 0.227 | 0.249 | 0.26 | 0.479 | 0.45 | 0.383 | 0.152 | 0.264 | 0.251 | 0.235 | 0.234 | 0.246 | 1.05 | 0.972 | 0.966 | 0.141
NCI-H1755 | 0.473 | 0.438 | 0.437 | 0.468 | 0.415 | 0.724 | 0.721 | 0.825 | 0.716 | 0.526 | 0.418 | 0.459 | 0.489 | 0.425 | 0.856 | 0.95 | 1.03 | 0.871
